Molecular target: T1, NSD2 (U2OS NSD2-HiBiT cells) (Homo sapiens, UniProt O96028)
T1 construct: RNPs were introduced into U2OS cells by electroporation; endogenous in cells; host or cells: U2OS NSD2-HiBiT clone P112 (CRISPR knock-in)
T1 sequence (O96028 1-1365): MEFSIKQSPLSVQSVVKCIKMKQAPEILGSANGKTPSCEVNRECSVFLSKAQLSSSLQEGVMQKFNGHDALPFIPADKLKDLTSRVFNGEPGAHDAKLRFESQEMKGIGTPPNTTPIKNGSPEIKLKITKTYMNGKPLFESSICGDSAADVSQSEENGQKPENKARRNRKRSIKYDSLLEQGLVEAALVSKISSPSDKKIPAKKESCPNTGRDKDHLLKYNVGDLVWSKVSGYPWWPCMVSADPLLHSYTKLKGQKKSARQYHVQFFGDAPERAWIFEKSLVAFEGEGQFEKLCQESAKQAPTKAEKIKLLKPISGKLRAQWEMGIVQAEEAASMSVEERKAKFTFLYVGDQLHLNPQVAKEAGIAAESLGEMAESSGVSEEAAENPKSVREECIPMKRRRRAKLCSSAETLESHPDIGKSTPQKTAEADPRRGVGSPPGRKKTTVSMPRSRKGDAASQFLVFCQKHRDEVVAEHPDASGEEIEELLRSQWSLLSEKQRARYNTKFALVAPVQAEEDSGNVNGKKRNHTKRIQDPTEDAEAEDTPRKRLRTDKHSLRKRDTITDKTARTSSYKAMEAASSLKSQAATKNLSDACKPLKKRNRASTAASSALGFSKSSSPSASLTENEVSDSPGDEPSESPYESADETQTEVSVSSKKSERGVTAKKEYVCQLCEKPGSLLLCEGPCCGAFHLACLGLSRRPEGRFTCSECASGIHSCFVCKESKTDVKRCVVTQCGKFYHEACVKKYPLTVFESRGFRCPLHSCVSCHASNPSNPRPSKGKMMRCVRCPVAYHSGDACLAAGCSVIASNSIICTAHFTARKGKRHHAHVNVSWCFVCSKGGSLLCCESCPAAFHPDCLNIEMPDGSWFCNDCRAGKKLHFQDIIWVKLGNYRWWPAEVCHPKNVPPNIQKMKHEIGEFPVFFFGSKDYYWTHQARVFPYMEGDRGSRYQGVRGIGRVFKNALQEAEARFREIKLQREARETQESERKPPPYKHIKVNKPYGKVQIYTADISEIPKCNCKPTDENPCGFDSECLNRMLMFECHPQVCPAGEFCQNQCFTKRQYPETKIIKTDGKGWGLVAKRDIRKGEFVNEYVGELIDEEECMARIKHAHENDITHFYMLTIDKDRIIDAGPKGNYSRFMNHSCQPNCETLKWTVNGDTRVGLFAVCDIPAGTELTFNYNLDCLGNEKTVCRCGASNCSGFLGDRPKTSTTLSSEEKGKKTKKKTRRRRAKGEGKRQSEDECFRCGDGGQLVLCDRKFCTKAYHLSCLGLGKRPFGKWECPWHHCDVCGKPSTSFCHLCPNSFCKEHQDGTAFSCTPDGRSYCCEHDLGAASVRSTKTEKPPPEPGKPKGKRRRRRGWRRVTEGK
Experiment: NSD2 HiBiT degradation assay
Type: cell-based
Settings: for NSD2 Remaining (%) / reduction of NSD2 levels: U2OS NSD2-HiBit cells, 1 µM, 6 h; for DC50: dose-response, read-out: DC50 (concentration at which 50% of NSD2 is degraded)
Excerpt: The NSD2 genomic sequence was obtained from the UCSC genome browser and used to design sgRNAs to introduce HiBiT tags at either the 5’ or 3’ ends of the gene. sgRNA were assembled into RNPs using TrueCut Cas9 Protein v2 (Invitrogen, Cat#A36497), an sgRNA crRNA:tracrRNA duplex (below; IDT) and ssODN (below; IDT). RNPs were introduced into U2OS cells by electroporation using a Neon XT electroporation system (1750 V, 10 ms, 3 pulses) in R-buffer, using Thermo Fisher Neon transfection kit (Cat# MPK1025K) and according to the manufacturer's protocol. After plating for recovery for four days, single cell clones limited dilution cloning. Single cell clones that grew out were identified as containing integrated HiBiT tags on NSD2 by performing HiBiT assays using HiBiT lytic assay (Promega: N3040) and read on a plate reader. Clones were further confirmed by PCR analysis.
To test compounds for NSD2 degradation, a compound plate was prepared by diluting compounds in DMSO into cell media in a 384-deep-well plate (Revvity). Then, 6 µL of the diluted compounds were transferred into the well of the 384-well assay plate (Corning). 24 µL of the NSD2 HiBiT U2OS P112 cells or parental U2OS cells (3000 cells/well) were added to each well to make a final volume of 30 µL with a 0.1% final DMSO concentration. For multiple time points, multiple assay plates were made and incubated in the incubator at 37 °C in 5% CO2 for 3/6/12/24/48 hrs. 10 min before the reading, the assay plate and the Nano-Glo HiBiT Lytic Detection System (Promega) were brought to room temperature. The HiBiT lytic reagent master mix was prepared according to the product instructions and added to the assay plate. The plate was then incubated on an orbital shaker for 5 min at room temperature, equilibrated for 10 min, and then read using the GloMax luminometer (Promega) for luminescence detection. Compound treatment was normalized to the DMSO control with the background subtraction using the parental U2OS cell line as the background control, plated alongside the HiBiT U2OS P112 cells. The data and graphs were then analyzed and generated using GraphPad Prism (v 10.4.1). DC50 and Dmax were calculated by fitting the data to a non-linear regression curve.

Compound	NSD2 Remaining (%)	reduction of NSD2 levels	fold more potent (DC50) than UNC8732 (U2OS NSD2 HiBit cells)	fold more potent (DC50) than UNC10415667 (U2OS NSD2 HiBit cells)	DC50 (U2OS NSD2 HiBit cells)	fold more potent (DC50) than UNC8732 and UNC10088 (U2OS NSD2 HiBit cells)
Cc1cc(C=O)ccc1C(=O)N1CCc2cc(NC(=O)c3ccc(CN(C(=O)c4ccc5c(c4)OCC(=O)N5)C4CC4)cc3)ccc2C1 [UNC12149]	7.4%	greater than 90%	~ 10 fold	~ 4 fold	120 nM	
O=Cc1ccc(C(=O)N2CCc3cc(NC(=O)c4ccc(CN(C(=O)c5ccc6c(c5)OCC(=O)N6)C5CC5)cc4)ccc3C2)cc1 [UNC10415667]	20%	about 75%			460 nM	about 2 fold
